Source: patent US5677297A, “Benzazepine-, benzoxazepine- and benzothiazepine-n-acetic acid derivatives, process for their preparation and pharmaceutical compositions containing them” (Solvay Pharmaceuticals GmbH, priority 1995, dated 1997)

Experiments:
[1] = molecular target: neutral endopeptidase (NEP), purified NEP (E.C.3.4.24.11) (Homo sapiens, UniProt P08473); assay: In vitro investigation of the NEP-inhibitory effect (hydrolytic degradation of met-enkephalin); format: biochemical; settings: substrate met-enkephalin, 37° C., pH 7.4
Chain of neutral endopeptidase (NEP), purified NEP (E.C.3.4.24.11) (P08473 whole entry): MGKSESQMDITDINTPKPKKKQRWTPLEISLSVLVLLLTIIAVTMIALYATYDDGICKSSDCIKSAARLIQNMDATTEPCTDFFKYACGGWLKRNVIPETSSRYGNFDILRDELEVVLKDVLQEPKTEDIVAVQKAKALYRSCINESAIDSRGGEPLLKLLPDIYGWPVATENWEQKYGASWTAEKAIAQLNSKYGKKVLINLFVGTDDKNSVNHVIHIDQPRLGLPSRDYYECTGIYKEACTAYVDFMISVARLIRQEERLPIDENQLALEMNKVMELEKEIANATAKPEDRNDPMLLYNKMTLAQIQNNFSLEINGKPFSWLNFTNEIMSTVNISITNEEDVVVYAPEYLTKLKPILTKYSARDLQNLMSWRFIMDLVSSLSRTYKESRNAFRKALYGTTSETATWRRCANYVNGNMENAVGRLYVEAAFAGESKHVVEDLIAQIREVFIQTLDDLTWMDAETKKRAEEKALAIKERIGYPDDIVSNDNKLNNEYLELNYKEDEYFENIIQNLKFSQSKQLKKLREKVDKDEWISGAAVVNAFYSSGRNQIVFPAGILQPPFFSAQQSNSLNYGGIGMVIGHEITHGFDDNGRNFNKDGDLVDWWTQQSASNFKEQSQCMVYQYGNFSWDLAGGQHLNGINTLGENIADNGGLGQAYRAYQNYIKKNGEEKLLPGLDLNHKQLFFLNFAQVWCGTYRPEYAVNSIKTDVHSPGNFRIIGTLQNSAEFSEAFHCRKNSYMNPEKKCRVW
Description: 2. In vitro investigation of the NEP-inhibitory effect of the substances and determination of the affinity of the substance molecules for the enzyme molecule. […] The Ki (inhibitor constant) of each substance was determined as a measure of its inhibitory activity. The Ki of a test substance with enzyme-inhibiting activity is the dissociation constant for the enzyme/test substance complex or the (enzyme/substrate)--test substance complex and has units of concentration.
To carry out the test, respective 100 μl samples of various incubation solutions containing 10 ng of purified NEP (E.C.3.4.24.11) and in each case different amounts of test substance and of substrate (met-enkephalin)and 50 mM tris buffer (=tris(hydroxymethyl)aminomethane/HCl, pH 7.4) were prepared.
For each test substance, 24 different incubation solutions were prepared with 3 different test substance concentrations respectively combined with met-enkephalin contents of 2, 5, 7, 10, 12, 15, 40 and 100 μm.
In each test, two types of control incubation solutions were also processed, on the one hand enzyme controls which contain no test substance, and on the other hand substrate controls which contain neither enzyme nor test substance.
The incubation solutions were incubated in a shaking water bath at 37° C. for 45 minutes. The enzyme reaction was started after 15 minutes by adding the substrate (metenkephalin) and was stopped at the end of the incubation time by heating at 95° C. for 5 minutes. The stopped incubation solution was then centrifuged at 12,000×g for 3 minutes, and the concentrations of unreacted substrate and of hydrolysis products formed by the enzymatic reaction were determined in the supernatant. For this purpose, samples of each of the respective supernatants were fractionated by HPLC (high-pressure liquid chromatography) on hydrophobized silica gel, and the products of the enzymatic reaction and unreacted substrate were determined by photometry at a wavelength of 205 nm. The HPLC separation was carried out using a column (4.6×250 mm) which contains Encapharm™ 100 RP18 having an average particle size of 5 μm as reversed phase separation material. The solvent flow rate was 1.4 ml/min, and the column was warmed to 40° C. Mobile phase A was 5 mM H3 PO4, pH 2.5, and mobile phase B was acetonitrile +1% 5 mM H3 PO4, pH 2.5.
The Ki for each test substance was calculated in a known manner from the concentrations of hydrolysis products and unreacted substrate measured in the various samples. […] The example numbers indicated in Table B refer to the following preparation examples.

[2] = molecular target: T1, endothelin-converting enzyme (ECE) (Homo sapiens, UniProt P42892); assay: In vitro investigation of the ECE-inhibitory effect (recombinant human ECE in CHO cell membrane fraction); format: biochemical; settings: 24 μM synthetic peptide substrate, pH 7.0, 37° C., 60 min
T1 construct: expressed in transfected cells; host or cells: CHO cells (Chinese hamster ovary), membrane fraction
T1 sequence (P42892 1-770): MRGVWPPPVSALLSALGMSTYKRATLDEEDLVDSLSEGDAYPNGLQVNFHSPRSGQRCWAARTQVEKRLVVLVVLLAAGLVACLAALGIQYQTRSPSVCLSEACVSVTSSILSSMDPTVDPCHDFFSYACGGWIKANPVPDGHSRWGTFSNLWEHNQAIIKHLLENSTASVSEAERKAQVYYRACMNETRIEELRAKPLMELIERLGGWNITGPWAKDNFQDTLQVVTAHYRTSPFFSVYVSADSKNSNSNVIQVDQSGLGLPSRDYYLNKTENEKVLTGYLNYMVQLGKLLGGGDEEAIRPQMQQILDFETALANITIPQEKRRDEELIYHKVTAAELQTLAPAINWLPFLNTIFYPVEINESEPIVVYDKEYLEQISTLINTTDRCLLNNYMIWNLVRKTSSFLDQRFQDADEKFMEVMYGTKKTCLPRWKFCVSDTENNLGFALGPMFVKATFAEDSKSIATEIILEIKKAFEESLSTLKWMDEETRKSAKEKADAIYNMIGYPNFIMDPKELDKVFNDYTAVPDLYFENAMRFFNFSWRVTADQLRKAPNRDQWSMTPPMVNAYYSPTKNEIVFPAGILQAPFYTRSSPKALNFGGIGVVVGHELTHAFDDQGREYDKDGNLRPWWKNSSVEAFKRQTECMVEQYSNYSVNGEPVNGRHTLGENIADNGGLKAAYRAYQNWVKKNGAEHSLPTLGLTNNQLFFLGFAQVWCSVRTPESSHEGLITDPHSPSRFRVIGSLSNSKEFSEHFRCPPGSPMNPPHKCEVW
Description: 3. In vitro investigations of the ECE-inhibitory effect of the substances.
The IC50 of the substances was determined as a measure of their inhibitory activity. The IC50 of a test substance with enzyme-inhibiting activity is the concentration of the test substance at which 50% of the enzymatic activity of ECE is inhibited.
Preparation of the ECE-containing endothelial cell membrane fraction.
Egg cells from the Chinese hamster (Chinese hamster ovary cells, hereinafter CHO cells) in which there was recombinant expression of human ECE [see Schmidt et al., Federation of European Biochemical Societies Letters 356 238-43 (1994)] were lysed, and the cell membranes were removed by centrifugation at 10,000×g for 10 min. The cell membranes were washed by resuspension and repeated centrifugation three times. The ECE-containing cell membrane fraction was resuspended in 100 mM tris/HCl buffer (tris(hydroxymethyl)aminomethane/HCl, pH 7.0, containing 250 mM NaCl) and stored frozen at -70° C. before the enzyme test.
To carry out the test, respective 100 μl samples of various incubation solutions each containing 5 μg protein from an ECE-containing preparation of endothelial cell membranes and different amounts of test substance and 24 μM substrate (synthetic peptide: H2 N-Asp-Ile-Ala-Trp-Phe-Asn-Thr-Pro-Glu-His-Val-Val-Pro-Tyr-Gly-Leu-Gly-COOH) (SEQ ID NO:1) and 100 mM tris buffer (tris(hydroxymethyl)aminomethane/HCl, pH 7.0, containing 250 mM sodium chloride) were prepared. […]
The incubation solutions were preincubated at 37° C. for 15 min before the substrate was added. […] The hydrolysis products H2N-Asp-Ile-Ala-Trp-COOH (SEQ ID NO:2) and H2 N-Phe-Asn-Thr-Pro-Glu-His-Val-Val-Pro-Tyr-Gly-Leu-Gly-COOH (SEQ ID NO:3) formed from the substrate by the enzymatic reaction were determined with the aid of high-pressure liquid chromatography (HPLC). […] The IC50 was calculated for each test substance in a known manner from the concentrations of hydrolysis products measured in the various samples.

[3] = design: species or system mouse (male); settings: mouse, in vivo, po, 4320 min
Description: 1. Determination of the minimum toxic dose
Male mice weighing 20-25 g received oral administrations of maximum doses of 300 mg/kg of the test substance. The animals were carefully observed for signs of toxicity for 3 hours. In addition, all signs and deaths over a period of 72 hours after administration were recorded. Accompanying signs were likewise observed and recorded. If death or signs of severe toxicity were observed, further mice were given increasingly lower doses until signs of toxicity no longer appeard. The lowest dose which caused death or signs of severe toxicity is indicated in following Table A as the minimum toxic dose. The example numbers listed in Table A refer to the following preparation examples.

[4] = In vivo determination of the effect on diuresis/natriuresis in volume-loaded rats; design: species or system rat (male Wistar); settings: volume loading 120 minutes after administration, urine collected over 60 min
Description: 4. In vivo determination of the effect of the substances on diuresis/natriuresis in volume-loaded rats.
The in vivo activity was investigated in volume-loaded rats. In this experiment a high cardiac filling pressure was caused by infusion of isotonic sodium chloride solution, which results in ANP release and thus diuresis/natriuresis.
The tests are carried out with male Wistar rats having a body weight of 200-400 g. Under neuroleptanalgesia (fentanyl; Hypnorm™, manufactured by Janssen), a catheter was placed in the right femoral vein for the baseline infusion and the volume loading with isotonic sodium chloride solution. After the abdominal cavity had been opened, a second catheter was inserted into the bladder, and the urethra was tied off so that it was possible to measure the urine volume, natriuresis and kaliuresis.
The abdominal cavity was closed again and the animals received a continuous infusion with sodium chloride solution (0.5 ml/100 g body weight) throughout the 2 hours of the test. After an equilibration period of 30 minutes, in a preliminary phase before the test substance was given, urine samples were collected three times over a period of 10 minutes in each case. These preliminary values ("predrug" values) were determined in order to check that there was a continuous flow of urine in the test animals.
The solutions containing test substances were then administered intravenously (bolus injection into the femoral vein) or orally (by gavage) to groups of 10 rats each. With both modes of administration, in each case one control group of animals received only placebo solutions which contained no active substance. 5 Minutes after i.v. administration or 120 minutes after oral administration of the substances, the rats were loaded with an increased volume of sodium chloride solution i.v. (2 ml/100 g body weight in 2 minutes) and the urine was collected over a period of 60 min. The amounts of urine produced in this period were determined, and the sodium and potassium contents therein were measured. The increase in excretion which took place under volume loading by comparison with the preliminary values was deduced from the resulting amounts of urine.
Furthermore, the amounts of sodium and potassium excreted under volume loading after administration of test substance are also indicated as a percentage of the amounts of sodium and potassium excreted under volume loading after placebo administration.

| Ki [1] [nM] | SMILES | Minimum toxic dose [3] [mg/kg] | other results |
| --- | --- | --- | --- |
| 1.08 | O=C(O)CN1C(=O)[C@@H](NC(=O)C2(CC(Cc3ccccc3)C(=O)O)CCCC2)CCc2ccccc21 (stereo partly drawn) [Example 29] | – | – |
| – | O=C(O)CN1C(=O)[C@@H](NC(=O)C2(C[C@@H](CCc3cccc4ccccc34)C(=O)O)CCCC2)CCc2ccccc21 [Example 39] | – | IC50 [2]: 520 nM |
| 0.76 | O=C(O)CN1C(=O)[C@@H](NC(=O)C2(CC(CCOc3ccc(F)cc3)C(=O)O)CCCC2)CSc2ccccc21 (stereo partly drawn) [Example 13, (3R)-3-{1-[2'-Carboxy-4'-(4-fluorophenoxy)butyl]cyclopentane-1-carbonylamino}-4-oxo-3,4-dihydro-1,5-benzothiazepine-5(2H)-acetic acid] | – | – |
| – | CCOC(=O)[C@H](CCc1ccccc1)CC1(C(=O)N[C@H]2CCc3ccccc3N(CC(=O)O)C2=O)CCCC1 [Example 4, (3S,2'R)-3-{1-[2'-(Ethoxycarbonyl)-4'-phenylbutyl]cyclopentane-1-carbonylamino}-2,3,4,5-tetrahydro-2-oxo-1H-1-benzazepine-1-acetic acid] | – | Increase in the excretion of urine under volume loading after administration of test substance as % based on the increase after placebo administration ([4]; 15 mg/kg p.o.): 196.5%; Increase in the excretion of urine under volume loading after administration of test substance as % based on the increase after placebo administration ([4]; 51 mg/kg p.o.): 271% |
| – | O=C(O)CN1C(=O)[C@@H](NC(=O)C2(C[C@@H](CCc3ccccc3)C(=O)O)CCCC2)CCc2ccccc21 [Example 37] | > 300 | – |
| – | O=C(O)CN1C(=O)C(NC(=O)C2(CC(Cc3cccc4ccccc34)C(=O)O)CCCC2)CCc2ccccc21 (stereo not drawn) [Example 38] | – | IC50 [2]: 2200 nM |
| – | O=C(O)CN1C(=O)C(NC(=O)C2(CC(Cc3ccccc3)C(=O)O)CCCC2)CCc2ccccc21 (stereo not drawn) [Example 27] | > 300 | – |
| 2.15 | COCCOC[C@H](CC1(C(=O)N[C@H]2CCc3ccccc3N(CC(=O)O)C2=O)CCCC1)C(=O)O [Example 22] | – | – |
| 2.55 | COCCOC[C@H](CC1(C(=O)N[C@H]2COc3ccccc3N(CC(=O)O)C2=O)CCCC1)C(=O)O [Example 11, (3S,2'S)-3-{1-[2'-Carboxy-3'-(2-methoxyethoxy)propyl]cyclopentane-1-carbonylamino}-4-oxo-3,4-dihydro-1,5-benzoxazepine-5(2H)-acetic acid] | – | – |
| 1.22 | O=C(O)CN1C(=O)C(NC(=O)C2(CC(CCOc3ccc(F)cc3)C(=O)O)CCCC2)CCc2ccccc21 (stereo not drawn) [Example 26] | – | – |

| SMILES | Ki [1] [nM] | Minimum toxic dose [3] [mg/kg] | other results |
| --- | --- | --- | --- |
| O=C(O)CN1C(=O)C(NC(=O)C2(CC(CCc3ccccc3)C(=O)O)CCCC2)CCc2ccccc21 (stereo not drawn) [Example 6, 3-[1-(2'-Carboxy-4'-phenylbutyl)cyclopentane-1-carbonylamino]-2,3,4,5-tetrahydro-2-oxo-1H-1-benzazepine-1-acetic acid] | 0.67 | > 300 | – |
| O=C(O)CN1C(=O)C(NC(=O)C2(CC(CCc3cccc4ccccc34)C(=O)O)CCCC2)CCc2ccccc21 (stereo not drawn) [Example 24] | 1 | > 300 | – |
